Source: ChEMBL document CHEMBL1150888, “Dragmacidins: new protein phosphatase inhibitors from a southern australian deep-water marine sponge, spongosorites sp” (1998)
≈ marks a conversion by molar mass, not a printed value. Calls of active or inactive are those of the source. The calls are words filed in the database; no cut-off is given here.

Tests used:
Escherichia coli = experiment: Antibacterial activity against Escherichia coli; assay type: functional
[1] = Inhibition of PP1
Candida albicans = experiment: Antifungal activity against Candida albicans; assay type: functional
[2] = Inhibition of PP2A

Row | Compound | MIC (Escherichia coli) | Activity [1] | MIC (Candida albicans) | Activity [2]
1 | CC(C1=CNC(N)N1)c1ccc(O)c2[nH]cc(-c3cnc(-c4c[nH]c5cc(Br)ccc45)c(=O)[nH]3)c12 (configuration not stated) [DRAGMACIDIN D] | 16 µg/mL (≈ 30.1 µM) | Active | 20 µg/mL (≈ 37.6 µM) | 
2 | C[C@@H]1c2ccc(O)c3[nH]cc(c23)-c2[nH]c(=O)c(-c3c[nH]c4cc(Br)ccc34)nc2[C@@]12CNC(N)=N2 [DRAGMACIDIN E] | 22 µg/mL (≈ 41.5 µM) | Active | 36 µg/mL (≈ 67.9 µM) | Active
